pIC50: −log10 of the molar value.
Key:
[1] = biological target: Receptor-type tyrosine-protein kinase FLT3 (Homo sapiens, UniProt P36888, ITD); assay: biochemical; assay type: cell-based, Sf9
MV4-11 = assay: Antiproliferative activity against human MV4-11 cells harboring homozygous FLT3-ITD mutant assessed as inhibition of cell growth incubated for 72 hrs by resazurin dye based fluorescence analysis; assay type: functional
K562 = assay: cells; settings: Homo sapiens, K562, 72 h
Description: Antiproliferative activity against FLT3-independent human K562 cells assessed as inhibition of cell growth incubated for 72 hrs by resazurin dye based fluorescence analysis

MOLM-13 = assay: cells; settings: Homo sapiens, MOLM-13, 72 h

Receptor-type tyrosine-protein kinase FLT3, sequence (P36888 whole entry, looked up, stated change not applied): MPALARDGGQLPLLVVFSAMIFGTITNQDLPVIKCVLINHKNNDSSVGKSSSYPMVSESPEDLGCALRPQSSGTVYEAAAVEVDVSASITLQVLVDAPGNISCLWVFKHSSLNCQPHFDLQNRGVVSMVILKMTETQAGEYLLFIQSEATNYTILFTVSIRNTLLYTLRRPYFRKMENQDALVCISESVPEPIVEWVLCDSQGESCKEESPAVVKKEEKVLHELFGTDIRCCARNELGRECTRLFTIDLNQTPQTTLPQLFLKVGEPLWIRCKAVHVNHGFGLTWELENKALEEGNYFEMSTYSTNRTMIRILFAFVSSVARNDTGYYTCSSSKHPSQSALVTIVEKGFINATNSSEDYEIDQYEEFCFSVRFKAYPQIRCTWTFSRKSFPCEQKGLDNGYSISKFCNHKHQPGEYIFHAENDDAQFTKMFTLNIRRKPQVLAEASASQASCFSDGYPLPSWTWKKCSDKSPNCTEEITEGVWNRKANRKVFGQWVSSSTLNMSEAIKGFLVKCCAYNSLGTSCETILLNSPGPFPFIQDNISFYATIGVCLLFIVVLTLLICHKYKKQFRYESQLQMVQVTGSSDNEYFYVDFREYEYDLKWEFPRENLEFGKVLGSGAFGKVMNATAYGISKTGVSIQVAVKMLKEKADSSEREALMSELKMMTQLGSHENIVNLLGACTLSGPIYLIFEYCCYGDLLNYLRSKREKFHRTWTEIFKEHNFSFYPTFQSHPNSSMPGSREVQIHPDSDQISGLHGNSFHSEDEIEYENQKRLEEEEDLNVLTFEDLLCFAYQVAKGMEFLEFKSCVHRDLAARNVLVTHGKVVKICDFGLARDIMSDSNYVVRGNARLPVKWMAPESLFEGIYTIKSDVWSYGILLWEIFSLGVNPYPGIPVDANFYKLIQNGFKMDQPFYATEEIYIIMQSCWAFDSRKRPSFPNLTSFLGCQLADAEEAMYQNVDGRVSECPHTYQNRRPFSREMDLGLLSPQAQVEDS

| SMILES | pIC50 [1] | GI50 (MV4-11) [nM] | GI50 (K562) [nM] | GI50 (MOLM-13) [nM] |
| --- | --- | --- | --- | --- |
| COc1ccc(-c2cc3c(Sc4nnc(NC(=O)Nc5ccc(Cl)c(C(F)(F)F)c5)s4)ncnc3o2)cc1 | 7.26 | > 10000 | > 10000 | 5820 |
| COc1cccc(NC(=O)Nc2nnc(Sc3ncnc4oc(-c5ccccc5)cc34)s2)c1 | 7.77 | 120 | 9460 | 79 |
| O=C(Nc1ccc(Cl)cc1)Nc1nnc(Sc2ncnc3oc(-c4ccccc4)c(-c4ccccc4)c23)s1 | 7.80 | 342 | 9860 | 452 |
| Cc1ccc(NC(=O)Nc2nnc(Sc3ncnc4oc(-c5ccccc5)c(-c5ccccc5)c34)s2)cc1 | 8.30 | 134 | > 10000 | 194 |
| O=C(Nc1nnc(Sc2ncnc3oc(-c4ccccc4)c(-c4ccccc4)c23)s1)Nc1ccccc1Br | 8.40 | 290 | > 10000 | 427 |
| COc1cccc(NC(=O)Nc2nnc(Sc3ncnc4oc(-c5ccccc5)c(-c5ccccc5)c34)s2)c1 | 8.40 | 86 | 9950 | 185 |
| O=C(Nc1ccccc1)Nc1nnc(Sc2ncnc3oc(-c4ccccc4)c(-c4ccccc4)c23)s1 | 8.40 | 74 | > 10000 | 110 |
| Cc1ccc(NC(=O)Nc2nnc(Sc3ncnc4oc(-c5ccccc5)c(-c5ccccc5)c34)s2)cc1Cl | < 5.30 | > 10000 | > 10000 | > 10000 |
| O=C(Nc1ccc(Cl)c(C(F)(F)F)c1)Nc1nnc(Sc2ncnc3oc(-c4ccccc4)cc23)s1 | 8.52 | 910 | > 10000 | 1220 |
| Cc1ccc(NC(=O)Nc2nnc(Sc3ncnc4oc(-c5ccccc5)cc34)s2)cc1Cl | 8.52 | 430 | 9500 | 375 |
| COc1ccc(NC(=O)Nc2nnc(Sc3ncnc4oc(-c5ccccc5)c(-c5ccccc5)c34)s2)cc1 | 8.30 | 61 | > 10000 | 83 |
| O=C(Nc1cccc(Cl)c1)Nc1nnc(Sc2ncnc3oc(-c4ccccc4)cc23)s1 | 8.00 | 345 | > 10000 | 240 |
| O=C(Nc1ccc(Br)cc1)Nc1nnc(Sc2ncnc3oc(-c4ccccc4)c(-c4ccccc4)c23)s1 | 7.26 | 396 | > 10000 | 723 |
| O=C(Nc1ccc(Cl)c(Cl)c1)Nc1nnc(Sc2ncnc3oc(-c4ccccc4)c(-c4ccccc4)c23)s1 | 6.34 | 6190 | > 10000 | 8660 |
| COc1ccc(-c2cc3c(Sc4nnc(NC(=O)Nc5cccc(Cl)c5)s4)ncnc3o2)cc1 | 7.32 | 1560 | > 10000 | 1060 |
| O=C(Nc1ccccc1)Nc1nnc(Sc2ncnc3oc(-c4ccccc4)cc23)s1 | 7.42 | 165 | > 10000 | 87 |
| COc1ccc(-c2cc3c(Sc4nnc(NC(=O)Nc5ccccc5)s4)ncnc3o2)cc1 | 7.80 | 96 | > 10000 | 117 |
| Cc1cccc(NC(=O)Nc2nnc(Sc3ncnc4oc(-c5ccccc5)cc34)s2)c1 | 7.92 | 133 | > 10000 | 105 |
| O=C(Nc1cccc(F)c1)Nc1nnc(Sc2ncnc3oc(-c4ccccc4)c(-c4ccccc4)c23)s1 | 8.40 | 145 | > 10000 | 650 |
| O=C(Nc1ccc(Br)cc1)Nc1nnc(Sc2ncnc3oc(-c4ccccc4)cc23)s1 | 8.52 | 1190 | > 10000 | 570 |
| COc1ccc(NC(=O)Nc2nnc(Sc3ncnc4oc(-c5ccc(OC)cc5)cc34)s2)cc1 | 7.64 | 250 | > 10000 | 180 |
| O=C(Nc1ccc(Cl)c(C(F)(F)F)c1)Nc1nnc(Sc2ncnc3oc(-c4ccccc4)c(-c4ccccc4)c23)s1 | 5.90 | 8300 | > 10000 | > 10000 |
| O=C(Nc1cccc(Cl)c1)Nc1nnc(Sc2ncnc3oc(-c4ccccc4)c(-c4ccccc4)c23)s1 | 7.85 | 362 | > 10000 | 404 |
| O=C(Nc1ccc(Cl)c(Cl)c1)Nc1nnc(Sc2ncnc3oc(-c4ccccc4)cc23)s1 | 8.40 | 1030 | 9830 | 710 |
| O=C(Nc1ccc(Cl)cc1)Nc1nnc(Sc2ncnc3oc(-c4ccccc4)cc23)s1 | 8.05 | 430 | > 10000 | 297 |
| O=C(Nc1cccc(F)c1)Nc1nnc(Sc2ncnc3oc(-c4ccccc4)cc23)s1 | 7.25 | 337 | 7960 | 190 |
| Cc1cccc(NC(=O)Nc2nnc(Sc3ncnc4oc(-c5ccccc5)c(-c5ccccc5)c34)s2)c1 | 8.00 | 115 | > 10000 | 120 |
| O=C(Nc1nnc(Sc2ncnc3oc(-c4ccccc4)c(-c4ccccc4)c23)s1)Nc1ccc(F)cc1F | 8.22 | 169 | > 10000 | 164 |
| COc1ccc(-c2cc3c(Sc4nnc(NC(=O)Nc5ccc(Cl)cc5)s4)ncnc3o2)cc1 | 7.66 | 1380 | > 10000 | 1140 |

Source: ChEMBL document CHEMBL6092193, “Identification of furo[2,3-d]pyrimidin-4-ylsulfanyl-1,3,4-thiadiazole derivatives as novel FLT3-ITD inhibitors” (Eur J Med Chem, 2024)
